Experimental data from publication PMC9527342, “An in vitro assay for enzymatic studies on human ALG13/14 heterodimeric UDP-N-acetylglucosamine transferase” (Frontiers in Cell and Developmental Biology, 2022).
Residue numbers refer to the chain shown, from its start. Names and notes keep the numbering of the source. Each block holds one molecule with its values, some of them ahead of it.

Tests used:
[1] = target: T1, recombinant human ALG13/14 complex (FLAG-ALG13-iso2/6His-ALG14) (Homo sapiens, UniProt Q96F25+Q9NP73); assay: LC-MS (UPLC-ESI-MS) of acid-released glycans, Michaelis-Menten fit; format: biochemical; conditions: acceptor 20-100 μM; 2 mM UDP-GlcNAc fixed; Tris/HCl pH 7.5, 0.3% NP-40, 23% glycerol, 37 °C, 15 min; no added metal; read-out: K m (apparent)
T1 construct: pelB-FLAG-ALG13-iso2 (25 kDa on SDS-PAGE) and 6His-ALG14 (22 kDa) co-expressed in E. coli Rosetta (DE3); purified from Triton X-100 membrane extract by HisTrap and anti-FLAG; tags kept; heterodimer, 45-66 kDa on native PAGE
T1 sequence (Q9NP73 1-165 isoform Q9NP73-2): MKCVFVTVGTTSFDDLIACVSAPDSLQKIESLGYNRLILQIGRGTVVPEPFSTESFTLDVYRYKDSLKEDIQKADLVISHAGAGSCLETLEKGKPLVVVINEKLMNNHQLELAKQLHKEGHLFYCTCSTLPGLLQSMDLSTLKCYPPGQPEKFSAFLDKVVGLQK
T1 sequence (Q96F25 1-216): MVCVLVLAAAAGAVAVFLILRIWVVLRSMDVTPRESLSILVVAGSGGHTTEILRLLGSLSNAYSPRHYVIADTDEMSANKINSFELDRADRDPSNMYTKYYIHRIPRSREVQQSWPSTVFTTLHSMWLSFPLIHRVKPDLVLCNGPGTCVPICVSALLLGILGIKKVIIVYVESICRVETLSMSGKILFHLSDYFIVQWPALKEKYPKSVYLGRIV

[2] = target: T2, 6His-ALG14 (human ALG14) (human) (UniProt Q96F25)
T2 sequence: T1 sequence (Q96F25 1-216)

Km [1]: 94.1 ± 9.4 µM
Molecule: CC(=O)N[C@H]1[C@@H](OP(=O)(O)OP(=O)(O)OCC[C@@H](C)CC/C=C(/C)CC/C=C(/C)CC/C=C(/C)CC/C=C(/C)CC/C=C(/C)CC/C=C(/C)CC/C=C(/C)CC/C=C(/C)CC/C=C(/C)CC/C=C(/C)CC/C=C(/C)CC/C=C(/C)CC/C=C(/C)CC/C=C(/C)CC/C=C(/C)CC/C=C(\C)CC/C=C(\C)CCC=C(C)C)O[C@H](CO)[C@@H](O)[C@@H]1O [Gn-PDol (C95)]

Relative activity (%): GnTase conversion rate of the mutant / that of the wild type, detergent extract of E. coli membranes, 0.1 ng/ul ALG13, 37°C, 15 min [2]: 26%
B1: FLAG-tagged ALG13-iso2 T141L (natural protein)
chain: T1 sequence (Q9NP73 1-165 isoform Q9NP73-2) with T141L
